How the values were obtained:
SA-β-gal [1] = assay: SA-β-gal staining of tissue sections of naturally aged mice (Example 7-3); assay type: in vivo, C57BL6J mice; conditions: stained area, LX-112 70 mg/kg oral daily 21 days
Procedure: After 22-month-old female C57BL6J mice (purchased from KRIBB Laboratory Animal Resource Center) were adapted to the experimental environment for one week, the aged mice were randomized into an experimental group and a control group. 8-week-old mice that were not aged were used as controls. LX-112 was mixed with 0.5% CMC-Na solution (purchased from Sigma) and administered orally at a concentration of 70 mg/kg daily for 21 days. The control group was administered only the solution in the same volume. After drug administration was completed, the method described in each Example below was performed.
The mouse was sacrificed, tissue sections were prepared from the organ tissues of each region, and stained for an aging marker (SA-β-gal) in the same manner as Example 1-1. Specifically, fat was removed from the tissues of each area collected from mice and fixed in 4% formalin at room temperature for more than 24 hours. For cryopreservation, the cells were placed in 30% sucrose for more than 8 hours and then rapidly frozen in cryoprotectant OCT medium for cryosectioning. The rapidly frozen tissue was commissioned to Histoa, a company specializing in histopathology services, and frozen sections were produced. The prepared frozen tissue sections were cut to a thickness of 8 μm, sectioned on a slide cover, dried at room temperature for 30 minutes, and then stored at −80° C. until use. After staining the aging marker (SA-β-gal), the images were taken through an optical microscope, and the area of the stained area was calculated using the Image J program and quantified by normalizing it based on the total area. […] FIG. 2 is a photo result of staining of adipose tissue.

SA-β-gal [2] = assay: SA-β-gal staining of tissues of doxorubicin-aged mice (Example 8-3); assay type: in vivo, C57BL6J mice; conditions: stained area; doxorubicin-aged mice, LX-112 70 mg/kg oral daily 21 days
Procedure: After adapting 8-week-old male C57BL6J mice (purchased from KRIBB Laboratory Animal Resource Center) to the experimental environment for 1 week, doxorubicin, an anticancer drug, was administered intraperitoneally at a concentration of 10 mg/kg, and mice that were induced to age for more than 10 days were assigned to an experimental group and a control group. LX-112 was mixed with 0.5% CMC-Na solution (purchased from Sigma) and administered orally at a concentration of 70 mg/kg daily for 21 days. The control group was administered only the solution in the same volume. After drug administration was completed, the method described in each Example below was performed.
Mice were sacrificed in the same method in described in Example 7-3, and tissue sections were prepared from the organ tissues of each region. SA-β-gal, an aging marker was stained. […] FIG. 3 is a photographic result of staining of adipose tissue.

[3] = test system: normally proliferating foreskin cells; assay: survival of normally proliferating foreskin cells treated with medium supernatant (secreted fluid) of compound-killed cells (Example 13, Table 68); assay type: cell-based, human; conditions: after 3 days
Procedure: After treating cells with the test compound at a high concentration that induces the death of most cells in both non-senescence-induced and senescence-induced cells, the cells were washed three times with PBS to remove the test compound, and replaced with fresh medium and cultured for an additional 3 hours at the time when the compound has entered into the cell but has not yet induced cell death (approximately 1 to 3 hours after compound treatment). During this additional culture, by checking with an optical microscope, etc., the medium supernatants containing secreted fluid from normally proliferating and senescent cells in which cell death was induced were obtained. The obtained medium supernatant was replaced with the medium of normally proliferating and senescent cells, respectively, and cell survival rate was measured after 3 days.

[4] = test system: normally proliferating cancer (A549) cells; assay: survival of normally proliferating A549 cancer cells treated with medium supernatant of compound-killed cancer cells (Example 14, Table 70); assay type: cell-based, human
Procedure: In the same way as Examples 12 and 13, senescence of cancer (A549) cells was induced by treatment with doxorubicin or the control group (DMSO), and the cells were cultured. […] In the same manner as in Example 13, the medium supernatants comprising secreted fluid from normally proliferating and senescent cancer cells was obtained. Normally proliferating and senescent-induced cancer cells were treated with the medium supernatants.

[5] = open field test in obese mice given senescent cells killed by test compounds (Example 16, Table 72); assay type: in vivo, C57BL6J mice; conditions: obese mice administered senescent cells whose death was induced by the test compound
Text: To obtain preadipocytes, groin fat tissue was collected from an 8-week-old female C57BL6J mouse (purchased from KRIBB Laboratory Animal Resource Center). The fat tissue was cut into small pieces and treated with collagenase to decompose the fat tissue, then centrifuged to collect the stromal vascular fraction (SVF) containing preadipocytes. It was washed with a washing medium (HBSS, purchased from GenDEPOT; 3.5% Albumin Fraction V, purchased from GenDEPOT; 100 U/ml Penicillin & Streptomycin, purchased from Invitrogen), mixed again, and extracted by filtering through a 100 μm nylon mesh. The isolated preadipocytes were cultured in the designated medium (DMEM, purchased from GenDEPOT; 20% FBS, purchased from GenDEPOT; 100 U/ml Penicillin & Streptomycin, purchased from Invitrogen). In the same manner as Example 1, cells were treated with doxorubicin at a concentration of 250 nM for 24 hours and cultured for an additional 21 days to induce cell senescence. Cells were treated with doxorubicin at a concentration of 250 nM for 24 hours and cultured for an additional 21 days to induce cell senescence. By treating the test compounds in the same manner as in Example 13, it was confirmed using an optical microscope that the death of most senescent cells was induced. The killed preadipocytes were washed using PBS (purchased from Welgene) and then mixed with PBS at a concentration of 5×10^5 cells/200 μl. It was administered subcutaneously to 8-week-old female C57BL6J mice (purchased from KRIBB Laboratory Animal Resource Center). At 7 and 10 days after administration of the killed senescent cells, 2 million senescent preadipocytes were mixed in 200 μl of PBS and administered into the abdominal cavity of mice. After administration of killed senescent cells, obesity was induced in mice with a high-fat diet (DIO) for 8 weeks in the same manner as in Example 9-1. Afterwards, the mouse was sacrificed in the same manner as in Example 7-2, total RNA was extracted from the groin fat tissue, and qRT-PCR was performed and analyzed using the synthesized cDNA. […] The mRNA amount of p16, MMP3, and IL6 without administration of senescent cells whose death was induced by the test compounds was calculated as 100%, and the amount of p16, MMP3, and IL6 after administration of the senescent cells whose death was induced by the test compounds was compared with them. Furthermore, an open field test was performed to analyze aging-related frailty in mice using the same method as Example 7-7. […] The amount of activity evaluation without administration of senescent cells whose death was induced by the test compounds was calculated as 100% and compared it with the amount of activity evaluation after administration of senescent cells whose death was induced by the test compounds.

Row | Structure (SMILES) | SA-β-gal (%) Kidney (SA-β-gal [1]) | SA-β-gal (%) Liver (SA-β-gal [1]) | SA-β-gal (%) Lung (SA-β-gal [1]) | SA-β-gal (%) Skin (SA-β-gal [1]) | SA-β-gal (%) eWAT (SA-β-gal [1]) | SA-β-gal (%) Kidney (SA-β-gal [2]) | SA-β-gal (%) Liver (SA-β-gal [2]) | SA-β-gal (%) Lung (SA-β-gal [2]) | SA-β-gal (%) eWAT (SA-β-gal [2]) | Survival (%) ([3]; supernatant from compound-treated medium without cells (No Cells)) | Survival (%) ([3]; supernatant from death-induced proliferating foreskin cells (compound 30 μM)) | Survival (%) ([3]; supernatant from death-induced senescent foreskin cells (compound 30 μM)) | Survival (%) ([4]; supernatant from No Cells) | Survival (%) ([4]; supernatant from death-induced proliferating cells (LX-405 30 μM)) | Survival (%) ([4]; supernatant from death-induced senescent cells (LX-405 30 μM)) | Open Field Test Time in Center (%) [5]
1 | O=c1c2ccccc2[se]n1CCn1[se]c2ccccc2c1=O [LX-112, 1,2-[bis(1,2-benzisoselenazolone-3(2H)-ketone)]ethane] | 55 (±17) % | 58 (±6) % | 67 (±6) % | 68 (±9) % | 38 (±7) % | 69.2 (±10.2) % | 67.4 (±9.9) % | 64.2 (±9.2) % | 51.4 (±13.4) % | – | – | – | – | – | – | –
2 | COC(=O)c1ccc([C@H]2c3[nH]c4ccccc4c3C[C@H](C(=O)OC)N2C(=O)CCl)cc1 [LX-405] | – | – | – | – | – | – | – | – | – | 99.4 (±2.4) % | 104 (±3) % | 100.2 (±5.6) % | 101.4 (±1.3) % | 98.6 (±4.8) % | 105.2 (±4.9) % | 174.2 (±12.5) %
